Assay results published in ChEMBL document CHEMBL1177794, “Broad spectrum alkynyl inhibitors of T315I Bcr-Abl” (Bioorg Med Chem Lett, 2010).

What was measured:
[1] = biological target: AP2-associated protein kinase 1 (Homo sapiens) (UniProt Q2M2I8); assay: Inhibition of AAK1 at 10 uM; details: values are per cent of control
[2] = tested on: Tyrosine-protein kinase ABL1 (Homo sapiens), P00519 [E255K]; assay: Inhibition of phosphorylated ABL1 E255K mutant at 10 uM; details: values are per cent of control
[3] = biological target: Tyrosine-protein kinase ABL2 (Homo sapiens) (UniProt P42684); assay: Inhibition of ABL2 at 10 uM; details: values are per cent of control
[4] = biological target: Activin receptor type-2A (Homo sapiens) (UniProt P27037); assay: Inhibition of ACVR2A at 10 uM; details: values are per cent of control
[5] = biological target: RAC-gamma serine/threonine-protein kinase (Homo sapiens) (UniProt Q9Y243); assay: Inhibition of AKT3 at 10 uM; details: values are per cent of control
[6] = biological target: Calcium/calmodulin-dependent protein kinase type 1G (Homo sapiens) (UniProt Q96NX5); assay: Inhibition of CAMK1G at 10 uM; details: values are per cent of control
[7] = biological target: Calcium/calmodulin-dependent protein kinase type II subunit gamma (Homo sapiens) (UniProt Q13555); assay: Inhibition of CAMK2G at 10 uM; details: values are per cent of control
[8] = biological target: Calcium/calmodulin-dependent protein kinase kinase 1 (Homo sapiens) (UniProt Q8N5S9); assay: Inhibition of CAMKK1 at 10 uM; details: values are per cent of control
[9] = biological target: Serine/threonine-protein kinase 17B (Homo sapiens) (UniProt O94768); assay: Inhibition of DRAK2 at 10 uM; details: values are per cent of control
[10] = tested on: Receptor-type tyrosine-protein kinase FLT3 (Homo sapiens), P36888 [D835H]; assay: Inhibition of FLT3 D835H mutant at 10 uM; details: values are per cent of control
[11] = biological target: Homeodomain-interacting protein kinase 4 (Homo sapiens) (UniProt Q8NE63); assay: Inhibition of HIPK4 at 10 uM; details: values are per cent of control
[12] = biological target: Insulin-like growth factor 1 receptor (Homo sapiens) (UniProt P08069); assay: Inhibition of IGF1R at 10 uM; details: values are per cent of control
[13] = biological target: Mast/stem cell growth factor receptor Kit (Homo sapiens) (UniProt P10721); assay: Inhibition of KIT at 10 uM; details: values are per cent of control
[14] = biological target: Mitogen-activated protein kinase kinase kinase kinase 4 (Homo sapiens) (UniProt O95819); assay: Inhibition of MAP4K4 at 10 uM; details: values are per cent of control
[15] = biological target: Dual specificity mitogen-activated protein kinase kinase 2 (Homo sapiens) (UniProt P36507); assay: Inhibition of MEK2 at 10 uM; details: values are per cent of control
[16] = biological target: Misshapen-like kinase 1 (Homo sapiens) (UniProt Q8N4C8); assay: Inhibition of MINK at 10 uM
[17] = biological target: MAP kinase-interacting serine/threonine-protein kinase 2 (Homo sapiens) (UniProt Q9HBH9); assay: Inhibition of MKNK2 at 10 uM
[18] = biological target: Mitogen-activated protein kinase kinase kinase 9 (Homo sapiens) (UniProt P80192); assay: Inhibition of MLK1 at 10 uM
[19] = biological target: Mitogen-activated protein kinase kinase kinase 11 (Homo sapiens) (UniProt Q16584); assay: Inhibition of MLK3 at 10 uM
[20] = biological target: Serine/threonine-protein kinase 4 (Homo sapiens) (UniProt Q13043); assay: Inhibition of MST1 at 10 uM
[21] = biological target: Serine/threonine-protein kinase Nek3 (Homo sapiens) (UniProt P51956); assay: Inhibition of NEK3 at 10 uM
[22] = biological target: Serine/threonine-protein kinase Nek4 (Homo sapiens) (UniProt P51957); assay: Inhibition of NEK4 at 10 uM
[23] = biological target: SRSF protein kinase 2 (Homo sapiens) (UniProt P78362); assay: Inhibition of SRPK2 at 10 uM
[24] = biological target: Serine/threonine-protein kinase 33 (Homo sapiens) (UniProt Q9BYT3); assay: Inhibition of STK33 at 10 uM
[25] = biological target: Non-receptor tyrosine-protein kinase TYK2 (Homo sapiens) (UniProt P29597); assay: Inhibition of TYK2 JH2 pseudokinase domain at 10 uM; details: values are per cent of control
[26] = biological target: Serine/threonine-protein kinase 32B (Homo sapiens) (UniProt Q9NY57); assay: Inhibition of YANK2 at 10 uM; details: values are per cent of control
[27] = biological target: Calcium-dependent protein kinase 1 (Plasmodium falciparum) (UniProt P62344); assay: Inhibition of Plasmodium falciparum PFCDPK1 at 10 uM; details: values are per cent of control
[28] = biological target: Phosphatidylinositol 3-kinase C2 domain-containing subunit gamma (Homo sapiens) (UniProt O75747); assay: Inhibition of PIK3C2G at 10 uM
[29] = biological target: Serine/threonine-protein kinase N2 (Homo sapiens) (UniProt Q16513); assay: Inhibition of PKN2 at 10 uM
[30] = biological target: Serine/threonine-protein kinase D3 (Homo sapiens) (UniProt O94806); assay: Inhibition of PRKD3 at 10 uM
[31] = biological target: RAF proto-oncogene serine/threonine-protein kinase (Homo sapiens) (UniProt P04049); assay: Inhibition of RAF1 at 10 uM; details: values are per cent of control
[32] = biological target: Serine/threonine-protein kinase RIO3 (Homo sapiens) (UniProt O14730); assay: Inhibition of RIOK3 at 10 uM
[33] = biological target: Rho-associated protein kinase 2 (Homo sapiens) (UniProt O75116); assay: Inhibition of ROCK2 at 10 uM
[34] = biological target: Ribosomal protein S6 kinase alpha-1 (Homo sapiens) (UniProt Q15418); assay: Inhibition of RSK1 C-terminal domain2 at 10 uM
[35] = biological target: SNF-related serine/threonine-protein kinase (Homo sapiens) (UniProt Q9NRH2); assay: Inhibition of SNRK at 10 uM
[36] = biological target: Citron Rho-interacting kinase (Homo sapiens) (UniProt O14578); assay: Inhibition of CIT at 10 uM; values are per cent of control
[37] = biological target: Myosin light chain kinase, smooth muscle (Homo sapiens) (UniProt Q15746); assay: Inhibition of MLCK at 10 uM; values are per cent of control
[38] = biological target: Serine/threonine-protein kinase Chk1 (Homo sapiens) (UniProt O14757); assay: Inhibition of CHEK1 at 10 uM; values are per cent of control
[39] = biological target: Mitogen-activated protein kinase kinase kinase kinase 3 (Homo sapiens) (UniProt Q8IVH8); assay: Inhibition of MAP4K3 at 10 uM; values are per cent of control
[40] = biological target: CDK4/Cyclin D3 (Homo sapiens) (UniProt P11802+P30281); assay: Inhibition of CDK4/cyclin D3 at 10 uM; values are per cent of control
[41] = biological target: Epidermal growth factor receptor (Homo sapiens) (UniProt P04626+P00533+Q15303+P21860); assay: Inhibition of EGFR E746-A750del mutant at 10 uM; values are per cent of control
[42] = biological target: Tyrosine-protein kinase JAK3 (Homo sapiens) (UniProt P52333); assay: Inhibition of JAK3 JH1 catalytic domain at 10 uM; values are per cent of control

Sequence of Insulin-like growth factor 1 receptor (Homo sapiens) (P08069 31-736 limits assumed): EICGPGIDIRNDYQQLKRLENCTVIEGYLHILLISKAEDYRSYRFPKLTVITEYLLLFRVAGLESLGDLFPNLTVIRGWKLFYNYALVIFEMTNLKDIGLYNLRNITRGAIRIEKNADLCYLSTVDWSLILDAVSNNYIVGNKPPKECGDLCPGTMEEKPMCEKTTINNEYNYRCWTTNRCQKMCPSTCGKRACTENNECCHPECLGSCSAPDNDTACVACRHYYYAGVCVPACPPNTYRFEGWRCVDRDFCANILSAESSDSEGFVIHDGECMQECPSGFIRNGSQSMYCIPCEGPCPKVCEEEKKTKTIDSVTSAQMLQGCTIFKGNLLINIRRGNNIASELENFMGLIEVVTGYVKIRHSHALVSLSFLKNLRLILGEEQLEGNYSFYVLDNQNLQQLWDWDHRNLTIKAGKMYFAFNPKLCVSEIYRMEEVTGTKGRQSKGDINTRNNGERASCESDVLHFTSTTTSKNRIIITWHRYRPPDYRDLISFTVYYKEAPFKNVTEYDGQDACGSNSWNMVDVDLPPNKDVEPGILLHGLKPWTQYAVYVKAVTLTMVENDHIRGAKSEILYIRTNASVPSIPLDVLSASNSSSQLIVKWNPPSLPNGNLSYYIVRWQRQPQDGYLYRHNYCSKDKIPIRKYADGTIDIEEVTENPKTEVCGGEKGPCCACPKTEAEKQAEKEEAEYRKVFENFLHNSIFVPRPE
Sequence of Insulin-like growth factor 1 receptor (Homo sapiens) (P08069 741-1367 limits assumed): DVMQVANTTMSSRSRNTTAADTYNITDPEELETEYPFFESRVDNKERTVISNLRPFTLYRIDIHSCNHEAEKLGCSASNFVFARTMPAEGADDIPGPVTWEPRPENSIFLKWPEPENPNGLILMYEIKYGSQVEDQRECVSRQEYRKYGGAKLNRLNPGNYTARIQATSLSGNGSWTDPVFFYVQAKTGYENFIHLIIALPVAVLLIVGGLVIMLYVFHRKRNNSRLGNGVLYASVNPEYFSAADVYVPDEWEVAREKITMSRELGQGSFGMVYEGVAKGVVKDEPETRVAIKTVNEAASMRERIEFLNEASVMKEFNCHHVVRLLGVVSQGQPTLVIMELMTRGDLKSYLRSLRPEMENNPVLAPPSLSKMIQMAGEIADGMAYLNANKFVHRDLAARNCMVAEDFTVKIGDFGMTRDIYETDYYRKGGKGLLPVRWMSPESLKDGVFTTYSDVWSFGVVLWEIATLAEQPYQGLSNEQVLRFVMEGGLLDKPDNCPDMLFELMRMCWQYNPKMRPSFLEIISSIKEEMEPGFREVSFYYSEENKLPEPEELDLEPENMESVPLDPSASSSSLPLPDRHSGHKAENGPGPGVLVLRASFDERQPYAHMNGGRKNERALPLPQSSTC
Sequence of Serine/threonine-protein kinase 32B (Homo sapiens) (Q9NY57 whole entry): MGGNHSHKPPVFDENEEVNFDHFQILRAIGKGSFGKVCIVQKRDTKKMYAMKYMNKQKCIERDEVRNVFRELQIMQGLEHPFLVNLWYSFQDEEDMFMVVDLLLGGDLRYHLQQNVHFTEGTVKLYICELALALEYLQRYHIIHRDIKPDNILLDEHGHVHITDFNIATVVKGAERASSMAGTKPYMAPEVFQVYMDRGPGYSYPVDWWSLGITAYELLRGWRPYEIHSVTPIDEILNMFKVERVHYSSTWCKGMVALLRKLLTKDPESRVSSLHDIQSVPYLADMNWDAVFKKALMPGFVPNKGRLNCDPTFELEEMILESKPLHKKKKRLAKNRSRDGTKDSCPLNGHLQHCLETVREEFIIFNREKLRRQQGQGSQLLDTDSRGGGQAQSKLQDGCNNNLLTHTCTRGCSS
Sequence of Calcium/calmodulin-dependent protein kinase kinase 1 (Homo sapiens) (Q8N5S9 whole entry, looked up): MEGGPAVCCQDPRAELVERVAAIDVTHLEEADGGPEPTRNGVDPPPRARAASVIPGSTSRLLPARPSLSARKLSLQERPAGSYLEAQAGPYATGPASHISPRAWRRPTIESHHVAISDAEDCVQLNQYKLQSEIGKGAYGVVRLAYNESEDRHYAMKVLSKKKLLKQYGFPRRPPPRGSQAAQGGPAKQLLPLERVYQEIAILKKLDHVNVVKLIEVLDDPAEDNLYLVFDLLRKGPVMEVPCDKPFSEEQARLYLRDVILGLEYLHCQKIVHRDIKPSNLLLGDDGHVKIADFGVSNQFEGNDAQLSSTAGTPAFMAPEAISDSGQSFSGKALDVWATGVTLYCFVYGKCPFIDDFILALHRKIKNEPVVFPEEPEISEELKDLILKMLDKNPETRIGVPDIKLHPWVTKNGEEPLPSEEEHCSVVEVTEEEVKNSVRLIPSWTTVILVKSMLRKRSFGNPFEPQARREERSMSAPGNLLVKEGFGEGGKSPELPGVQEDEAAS
Sequence of Serine/threonine-protein kinase RIO3 (Homo sapiens) (O14730 whole entry): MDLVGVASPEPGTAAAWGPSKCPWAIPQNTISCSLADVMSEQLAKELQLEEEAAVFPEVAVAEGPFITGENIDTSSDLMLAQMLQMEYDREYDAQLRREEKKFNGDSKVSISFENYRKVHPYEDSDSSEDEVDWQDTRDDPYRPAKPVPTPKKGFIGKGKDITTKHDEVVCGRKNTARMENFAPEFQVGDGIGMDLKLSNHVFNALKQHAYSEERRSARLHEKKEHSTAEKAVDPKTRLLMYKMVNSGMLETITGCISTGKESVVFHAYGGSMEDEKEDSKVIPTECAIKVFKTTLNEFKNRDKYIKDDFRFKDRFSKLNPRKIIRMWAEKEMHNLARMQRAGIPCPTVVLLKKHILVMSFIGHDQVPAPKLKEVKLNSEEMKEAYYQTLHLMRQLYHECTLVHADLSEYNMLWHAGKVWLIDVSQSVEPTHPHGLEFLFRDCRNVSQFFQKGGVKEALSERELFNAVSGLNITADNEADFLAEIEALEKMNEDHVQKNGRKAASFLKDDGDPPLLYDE
Sequence of Ribosomal protein S6 kinase alpha-1 (Homo sapiens) (Q15418 whole entry, the tested form may be a part): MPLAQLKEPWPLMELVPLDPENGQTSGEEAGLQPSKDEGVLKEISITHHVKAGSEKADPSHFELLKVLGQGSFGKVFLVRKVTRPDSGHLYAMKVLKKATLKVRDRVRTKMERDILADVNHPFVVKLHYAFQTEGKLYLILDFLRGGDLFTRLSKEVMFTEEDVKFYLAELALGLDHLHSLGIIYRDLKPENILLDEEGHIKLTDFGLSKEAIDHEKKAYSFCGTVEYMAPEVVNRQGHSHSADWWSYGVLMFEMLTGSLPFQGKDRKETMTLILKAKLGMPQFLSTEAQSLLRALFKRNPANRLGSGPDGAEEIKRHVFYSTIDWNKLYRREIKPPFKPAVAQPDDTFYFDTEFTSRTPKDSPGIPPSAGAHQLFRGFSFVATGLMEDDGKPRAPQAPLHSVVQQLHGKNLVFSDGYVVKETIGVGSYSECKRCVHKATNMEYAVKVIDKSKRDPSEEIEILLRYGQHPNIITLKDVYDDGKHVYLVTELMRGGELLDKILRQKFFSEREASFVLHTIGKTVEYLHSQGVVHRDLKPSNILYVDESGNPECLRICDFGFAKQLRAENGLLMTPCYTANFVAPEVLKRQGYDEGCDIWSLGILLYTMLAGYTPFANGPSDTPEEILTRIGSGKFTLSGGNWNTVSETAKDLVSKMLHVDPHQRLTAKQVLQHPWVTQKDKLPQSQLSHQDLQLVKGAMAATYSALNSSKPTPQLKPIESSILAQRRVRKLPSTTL
Sequence of Tyrosine-protein kinase ABL2 (Homo sapiens) (P42684 whole entry): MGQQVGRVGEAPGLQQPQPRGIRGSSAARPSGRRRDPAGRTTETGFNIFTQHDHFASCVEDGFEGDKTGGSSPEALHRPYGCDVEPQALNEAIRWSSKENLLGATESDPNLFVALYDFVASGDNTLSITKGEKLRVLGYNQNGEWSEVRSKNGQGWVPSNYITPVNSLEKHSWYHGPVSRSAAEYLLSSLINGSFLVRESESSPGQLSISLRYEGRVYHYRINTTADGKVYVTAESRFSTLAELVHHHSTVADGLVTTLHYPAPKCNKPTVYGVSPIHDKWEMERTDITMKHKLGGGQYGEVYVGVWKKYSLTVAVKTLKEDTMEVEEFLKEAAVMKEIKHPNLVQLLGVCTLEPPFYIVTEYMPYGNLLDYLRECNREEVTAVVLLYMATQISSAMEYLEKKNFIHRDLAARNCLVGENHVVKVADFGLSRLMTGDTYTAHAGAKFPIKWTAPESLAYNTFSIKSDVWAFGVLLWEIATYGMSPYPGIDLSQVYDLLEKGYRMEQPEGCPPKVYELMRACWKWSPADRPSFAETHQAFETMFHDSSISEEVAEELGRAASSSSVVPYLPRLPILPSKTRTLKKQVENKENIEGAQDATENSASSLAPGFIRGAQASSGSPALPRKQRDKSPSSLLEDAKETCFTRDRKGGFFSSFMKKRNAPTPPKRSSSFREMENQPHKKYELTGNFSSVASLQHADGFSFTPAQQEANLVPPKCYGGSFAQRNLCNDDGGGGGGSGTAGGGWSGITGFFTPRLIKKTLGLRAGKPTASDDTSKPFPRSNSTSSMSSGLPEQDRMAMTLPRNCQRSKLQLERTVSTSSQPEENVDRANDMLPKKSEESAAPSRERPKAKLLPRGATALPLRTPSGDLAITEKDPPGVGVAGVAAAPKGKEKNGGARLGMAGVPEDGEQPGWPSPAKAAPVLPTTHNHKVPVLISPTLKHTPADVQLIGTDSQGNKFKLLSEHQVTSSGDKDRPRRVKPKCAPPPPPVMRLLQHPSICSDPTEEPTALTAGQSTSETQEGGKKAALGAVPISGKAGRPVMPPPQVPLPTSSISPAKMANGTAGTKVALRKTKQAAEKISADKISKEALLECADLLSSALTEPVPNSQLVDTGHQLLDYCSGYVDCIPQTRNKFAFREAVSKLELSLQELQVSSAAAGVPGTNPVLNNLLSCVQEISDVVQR

## CCN1CCN(Cc2ccc(NC(=O)c3ccc(C)c(C#Cc4cnc5[nH]ccc5c4)c3)cc2C(F)(F)F)CC1
[1]
  residual binding, % of control: 59%
[2]
  residual binding, % of control: 0.2%
[3]
  residual binding, % of control: 0%
[4]
  residual binding, % of control: 100%
[5]
  residual binding, % of control: 82%
[6]
  residual binding, % of control: 92%
[7]
  residual binding, % of control: 92%
[8]
  residual binding, % of control: 69%
[9]
  residual binding, % of control: 12%
[10]
  residual binding, % of control: 0.35%
[11]
  residual binding, % of control: 1.9%
[12]
  residual binding, % of control: 95%
[13]
  residual binding, % of control: 0%
[14]
  residual binding, % of control: 1.8%
[15]
  residual binding, % of control: 37%
[16]
  inhibition: 5.4%
[17]
  inhibition: 0.6%
[18]
  inhibition: 1.7%
[19]
  inhibition: 3%
[20]
  inhibition: 12%
[21]
  inhibition: 49%
[22]
  inhibition: 14%
[23]
  inhibition: 63%
[24]
  inhibition: 6.8%
[25]
  residual binding, % of control: 96%
[26]
  residual binding, % of control: 100%
[27]
  residual binding, % of control: 0.2%
[28]
  inhibition: 100%
[29]
  inhibition: 2.2%
[30]
  inhibition: 6.4%
[31]
  residual binding, % of control: 0.95%
[32]
  inhibition: 38%
[33]
  inhibition: 18%
[34]
  inhibition: 17%
[35]
  inhibition: 60%
[36]
  level, % of control: 0%
[37]
  % of control: 18%
[38]
  level, % of control: 88%
[39]
  level, % of control: 1.8%
[40]
  level, % of control: 65%
[41]
  level, % of control: 0.75%
[42]
  level, % of control: 3.5%

## CCN1CCN(Cc2ccc(NC(=O)c3ccc(C)c(C#Cc4cccnc4)c3)cc2C(F)(F)F)CC1
[1]
  residual binding, % of control: 99%
[2]
  residual binding, % of control: 0.05%
[3]
  residual binding, % of control: 0.05%
[4]
  residual binding, % of control: 100%
[5]
  residual binding, % of control: 48%
[6]
  residual binding, % of control: 100%
[7]
  residual binding, % of control: 95%
[8]
  residual binding, % of control: 53%
[9]
  residual binding, % of control: 100%
[10]
  residual binding, % of control: 0.15%
[11]
  residual binding, % of control: 2.2%
[12]
  residual binding, % of control: 100%
[13]
  residual binding, % of control: 0%
[14]
  residual binding, % of control: 3.3%
[15]
  residual binding, % of control: 64%
[16]
  inhibition: 2.5%
[17]
  inhibition: 0%
[18]
  inhibition: 43%
[19]
  inhibition: 17%
[20]
  inhibition: 23%
[21]
  inhibition: 53%
[22]
  inhibition: 6.4%
[23]
  inhibition: 81%
[24]
  inhibition: 14%
[25]
  residual binding, % of control: 99%
[26]
  residual binding, % of control: 100%
[27]
  residual binding, % of control: 0.05%
[28]
  inhibition: 100%
[29]
  inhibition: 36%
[30]
  inhibition: 22%
[31]
  residual binding, % of control: 0.5%
[32]
  inhibition: 70%
[33]
  inhibition: 19%
[34]
  inhibition: 7.2%
[35]
  inhibition: 34%
[36]
  level, % of control: 0%
[37]
  % of control: 60%
[38]
  level, % of control: 80%
[39]
  level, % of control: 2.6%
[40]
  level, % of control: 54%
[41]
  level, % of control: 1.8%
[42]
  level, % of control: 2.3%
